Test results as given in ChEMBL document CHEMBL1201862, “PubChem BioAssay data set” (2004).
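Results reflect a 48-hour exposure of cells in 96-well plates to compound at five concentrations. GI50 marks 50% less growth.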 Activity calls are given as the source filed them. Cut-off read from the data, not from the text of the source: active = GI50 up to about 1.1 µM and inactive = higher.

Key:
Experiment in all cases: NCI anticancer screen, dose series, 48 h
TK-10 = tested on: TK-10
EKVX = tested on: EKVX
HCT-15 = tested on: HCT-15
K562 = tested on: K562
OVCAR-3 = tested on: OVCAR-3
NCI-H23 = tested on: NCI-H23
KM12 = tested on: KM12
A498 = tested on: A498
CAKI-1 = tested on: CAKI-1
HL-60 = tested on: HL-60
RPMI-8226 = tested on: RPMI-8226
NCI-H460 = tested on: NCI-H460
OVCAR-8 = tested on: OVCAR-8
U-251 = tested on: U-251
SK-MEL-5 = tested on: SK-MEL-5
DLD-1 = tested on: DLD-1
HOP-92 = tested on: HOP-92
COLO 205 = tested on: COLO 205
NCI-H226 = tested on: NCI-H226
RXF 393 = tested on: RXF 393
HCT-116 = tested on: HCT-116
SR = tested on: SR
LOX IMVI = tested on: LOX IMVI
MOLT-4 = tested on: MOLT-4
NCI-H522 = tested on: NCI-H522
KM-20L2 = tested on: KM-20L2
SF-539 = tested on: SF-539
DMS-114 = tested on: DMS-114
DMS-273 = tested on: DMS-273
SK-OV-3 = tested on: SK-OV-3
LXFL 529 = tested on: LXFL 529
HT-29 = tested on: HT-29
M19-MEL = tested on: M19-MEL
SN12C = tested on: SN12C
ACHN = tested on: ACHN
HOP-18 = tested on: HOP-18
SF-268 = tested on: SF-268
SW-620 = tested on: SW-620
XF498 = tested on: XF498
UACC-62 = tested on: UACC-62
HCC 2998 = tested on: HCC 2998
RXF 631 = tested on: RXF 631
SNB-78 = tested on: SNB-78
UACC-257 = tested on: UACC-257
SNB-19 = tested on: SNB-19
OVCAR-4 = tested on: OVCAR-4
UO-31 = tested on: UO-31
A549 = tested on: A549
SK-MEL-2 = tested on: SK-MEL-2
786-0 = tested on: 786-0
SF-295 = tested on: SF-295
SK-MEL-28 = tested on: SK-MEL-28
M14 = tested on: M14
Malme-3M = tested on: Malme-3M
IGROV-1 = tested on: IGROV-1
HOP-62 = tested on: HOP-62
SNB-75 = tested on: SNB-75
OVCAR-5 = tested on: OVCAR-5
T47D = tested on: T47D
NCI/ADR-RES = tested on: NCI/ADR-RES
MCF7 = tested on: MCF7
PC-3 = tested on: PC-3
CCRF-CEM = tested on: CCRF-CEM
MDA-N = tested on: MDA-N
Hs-578T = tested on: Hs-578T
MDA-MB-231 = tested on: MDA-MB-231
DU-145 = tested on: DU-145
BT-549 = tested on: BT-549
MDA-MB-435 = tested on: MDA-MB-435

SMILES: CC(C)OCN/C(N)=N\C#N
- GI50 (TK-10): > 100 µM (inactive)
- GI50 (EKVX): > 100 µM (inactive)
- GI50 (HCT-15): 17.5 µM
- GI50 (K562): > 100 µM (inactive)
- GI50 (OVCAR-3): > 100 µM (inactive)
- GI50 (NCI-H23): > 100 µM (inactive)
- GI50 (KM12): > 100 µM (inactive)
- GI50 (A498): > 100 µM (inactive)
- GI50 (CAKI-1): > 100 µM (inactive)
- GI50 (HL-60): > 100 µM (inactive)
- GI50 (RPMI-8226): 24 µM (inactive)
- GI50 (NCI-H460): > 100 µM (inactive)
- GI50 (OVCAR-8): > 100 µM (inactive)
- GI50 (U-251): > 100 µM (inactive)
- GI50 (SK-MEL-5): > 100 µM (inactive)
- GI50 (DLD-1): 59.7 µM (inactive)
- GI50 (HOP-92): > 100 µM (inactive)
- GI50 (COLO 205): 29.1 µM (inactive)
- GI50 (NCI-H226): > 100 µM (inactive)
- GI50 (RXF 393): 46.1 µM (inactive)
- GI50 (HCT-116): > 100 µM (inactive)
- GI50 (SR): 10.8 µM (inactive)
- GI50 (LOX IMVI): 20.5 µM (inactive)
- GI50 (MOLT-4): > 100 µM (inactive)
- GI50 (NCI-H522): > 100 µM (inactive)
- GI50 (KM-20L2): > 100 µM (inactive)
- GI50 (SF-539): > 100 µM (inactive)
- GI50 (DMS-114): > 100 µM (inactive)
- GI50 (DMS-273): 49.2 µM (inactive)
- GI50 (SK-OV-3): > 100 µM (inactive)
- GI50 (LXFL 529): > 100 µM (inactive)
- GI50 (HT-29): 43.8 µM (inactive)
- GI50 (M19-MEL): > 100 µM (inactive)
- GI50 (SN12C): > 100 µM (inactive)
- GI50 (ACHN): > 100 µM (inactive)
- GI50 (HOP-18): > 100 µM (inactive)
- GI50 (SF-268): > 100 µM (inactive)
- GI50 (SW-620): 17 µM (inactive)
- GI50 (XF498): > 100 µM (inactive)
- GI50 (UACC-62): > 100 µM (inactive)
- GI50 (HCC 2998): > 100 µM (inactive)
- GI50 (RXF 631): > 100 µM (inactive)
- GI50 (SNB-78): > 100 µM (inactive)
- GI50 (UACC-257): > 100 µM (inactive)
- GI50 (SNB-19): > 100 µM (inactive)
- GI50 (OVCAR-4): > 100 µM (inactive)
- GI50 (UO-31): > 100 µM (inactive)
- GI50 (A549): > 100 µM (inactive)
- GI50 (SK-MEL-2): > 100 µM (inactive)
- GI50 (786-0): 82.4 µM (inactive)
- GI50 (SF-295): > 100 µM (inactive)
- GI50 (SK-MEL-28): > 100 µM (inactive)
- GI50 (M14): > 100 µM (inactive)
- GI50 (Malme-3M): > 100 µM (inactive)
- GI50 (IGROV-1): > 100 µM (inactive)
- GI50 (HOP-62): > 100 µM (inactive)
- GI50 (SNB-75): > 100 µM (inactive)
- GI50 (OVCAR-5): > 100 µM (inactive)

SMILES: CC(=O)OC1CC[C@@]2(C)C(CC[C@]3(C)C2CC=C2[C@@H]4C(C)[C@H](C)CCC4(C)CCC23C)[C@@]1(C)C(=O)O (some centres not stated)
- GI50 (TK-10): 18.6 µM (inactive)
- GI50 (T47D): 17.9 µM (inactive)
- GI50 (EKVX): 18 µM (inactive)
- GI50 (HCT-15): 17.6 µM
- GI50 (NCI/ADR-RES): 17 µM (inactive)
- GI50 (K562): 25.9 µM (inactive)
- GI50 (OVCAR-3): 18.9 µM (inactive)
- GI50 (NCI-H23): 22.5 µM (inactive)
- GI50 (KM12): 21.2 µM (inactive)
- GI50 (A498): 19.5 µM (inactive)
- GI50 (CAKI-1): 18.2 µM (inactive)
- GI50 (HL-60): 27.4 µM (inactive)
- GI50 (RPMI-8226): 21.9 µM (inactive)
- GI50 (NCI-H460): 23.5 µM (inactive)
- GI50 (MCF7): 16 µM (inactive)
- GI50 (OVCAR-8): 23.6 µM (inactive)
- GI50 (U-251): 22 µM (inactive)
- GI50 (SK-MEL-5): 17.4 µM (inactive)
- GI50 (DLD-1): 18.7 µM (inactive)
- GI50 (HOP-92): 21.2 µM (inactive)
- GI50 (COLO 205): 20.4 µM (inactive)
- GI50 (NCI-H226): 22.1 µM (inactive)
- GI50 (RXF 393): 21.7 µM (inactive)
- GI50 (HCT-116): 16.4 µM (inactive)
- GI50 (SR): 27.9 µM (inactive)
- GI50 (LOX IMVI): 20.9 µM (inactive)
- GI50 (MOLT-4): 26.8 µM (inactive)
- GI50 (PC-3): 15.4 µM (inactive)
- GI50 (NCI-H522): 19.2 µM (inactive)
- GI50 (KM-20L2): 16.2 µM (inactive)
- GI50 (SF-539): 21.4 µM (inactive)
- GI50 (DMS-114): 18.4 µM (inactive)
- GI50 (DMS-273): 21.2 µM (inactive)
- GI50 (SK-OV-3): 18.4 µM (inactive)
- GI50 (LXFL 529): 17.3 µM (inactive)
- GI50 (CCRF-CEM): 24.9 µM (inactive)
- GI50 (HT-29): 21.2 µM (inactive)
- GI50 (MDA-N): 20.9 µM (inactive)
- GI50 (M19-MEL): 23.1 µM (inactive)
- GI50 (SN12C): 21.5 µM (inactive)
- GI50 (ACHN): 18.2 µM (inactive)
- GI50 (HOP-18): 16.3 µM (inactive)
- GI50 (SF-268): 23.5 µM (inactive)
- GI50 (SW-620): 21.9 µM (inactive)
- GI50 (Hs-578T): 25.7 µM (inactive)
- GI50 (XF498): 16.9 µM (inactive)
- GI50 (UACC-62): 17 µM (inactive)
- GI50 (HCC 2998): 19.1 µM (inactive)
- GI50 (RXF 631): 23.9 µM (inactive)
- GI50 (MDA-MB-231): 20.9 µM (inactive)
- GI50 (DU-145): 17.9 µM (inactive)
- GI50 (SNB-78): 26.5 µM (inactive)
- GI50 (UACC-257): 21 µM (inactive)
- GI50 (SNB-19): 22.9 µM (inactive)
- GI50 (OVCAR-4): 26 µM (inactive)
- GI50 (UO-31): 20.7 µM (inactive)
- GI50 (A549): 17.5 µM (inactive)
- GI50 (SK-MEL-2): 21.3 µM (inactive)
- GI50 (786-0): 23.2 µM (inactive)
- GI50 (SF-295): 17.6 µM (inactive)
- GI50 (SK-MEL-28): 23.7 µM (inactive)
- GI50 (M14): 22.3 µM (inactive)
- GI50 (BT-549): 25 µM (inactive)
- GI50 (Malme-3M): 24.2 µM (inactive)
- GI50 (IGROV-1): 20.6 µM (inactive)
- GI50 (HOP-62): 20.7 µM (inactive)
- GI50 (SNB-75): 19.2 µM (inactive)
- GI50 (OVCAR-5): 18 µM (inactive)
- GI50 (MDA-MB-435): 19.8 µM (inactive)
